Test systems include CAKI-1 renal; RPMI-8226 leukemia; MDA-N; UO-31 renal; SK-MEL-2 melanoma; SK-OV-3 ovarian; COLO 205 colon; NCI-H226 lung; MCF7 breast; A498 renal; HT29 colon; OVCAR-8 ovarian; NCI-H460 lung; RXF 393 renal; SF-268 CNS; OVCAR-5 ovarian; 786-0 renal; NCI-H23 lung; BT-549 breast; HCT-116 colon.
Assay in all cases: NCI-60 cell line screen, 48 h

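Protocol summary: plate cells (96-well), add compound at 5 concentrations, incubate 48 h, interpolate endpoints linearly. At the TGI there is no net growth.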

For `CN(C)/N=C1\C=C2CC[C@H](O[Si](C)(C)C(C)(C)C)[C@@]2(C)CC1`, the TGI in the assay with CAKI-1 renal came to 27.3 µM; in the assay on RPMI-8226 leukemia it was 22 µM; in the assay with MDA-N, 41.4 µM; with UO-31 renal, 29.8 µM; with SK-MEL-2 melanoma, 30.4 µM; with SK-OV-3 ovarian it was 68.2 µM. The TGI was 32.1 µM in the assay on COLO 205 colon; 35 µM in the assay on NCI-H226 lung; 31.5 µM in the assay with MCF7 breast; 38.7 µM in the assay with A498 renal; 34.9 µM with HT29 colon; 33.3 µM in the assay on OVCAR-8 ovarian. The TGI amounted to 31.9 µM with NCI-H460 lung; 28 µM with RXF 393 renal; 39.6 µM in the assay with SF-268 CNS; 32.5 µM in the assay with OVCAR-5 ovarian; 31.9 µM in the assay on 786-0 renal; 52.4 µM in the assay on NCI-H23 lung.

Take `Cc1ccc(S(=O)(=O)NC(=O)NC(C(=O)O)C(C)O)cc1` (configuration not stated): the TGI with RPMI-8226 leukemia, with MDA-N, with UO-31 renal, with SK-MEL-2 melanoma, in the assay on SK-OV-3 ovarian and in the assay with COLO 205 colon was above 100 µM each time. Further, the TGI in the assay on BT-549 breast, in the assay with MCF7 breast, with HT29 colon, in the assay with OVCAR-8 ovarian, in the assay on NCI-H460 lung and in the assay on RXF 393 renal was above 100 µM each time. Further, the TGI with HCT-116 colon, in the assay on SF-268 CNS, in the assay on OVCAR-5 ovarian, with 786-0 renal and with NCI-H23 lung was above 100 µM each time.

As for `COc1cc(C2=C(C)[C@@H]3CN(CC=C3c3ccc(Cl)cc3)C2)c(S(=O)(=O)O)cc1OC`, the TGI in the assay on CAKI-1 renal, in the assay on RPMI-8226 leukemia, in the assay with MDA-N, with UO-31 renal, with SK-MEL-2 melanoma and in the assay with SK-OV-3 ovarian was above 100 µM in each case. Besides, the TGI in the assay on COLO 205 colon, in the assay on NCI-H226 lung, in the assay on BT-549 breast, in the assay with HT29 colon, in the assay with OVCAR-8 ovarian and in the assay on RXF 393 renal was above 100 µM in each case. Further, the TGI in the assay on HCT-116 colon, in the assay on SF-268 CNS, with OVCAR-5 ovarian, in the assay with 786-0 renal and in the assay on NCI-H23 lung was above 100 µM in each case.

Consider `CC(C)(O)/C=C\P(C)(=O)c1ccccc1` (configuration not stated), for which the TGI in the assay with CAKI-1 renal, with RPMI-8226 leukemia, with MDA-N, in the assay with SK-MEL-2 melanoma, with SK-OV-3 ovarian and in the assay with COLO 205 colon was above 100 µM in each case. Further, the TGI in the assay with NCI-H226 lung, in the assay on MCF7 breast, with HT29 colon, with OVCAR-8 ovarian, with NCI-H460 lung and with RXF 393 renal was above 100 µM each time. For the same molecule, the TGI in the assay on HCT-116 colon, in the assay on SF-268 CNS, with OVCAR-5 ovarian, in the assay with 786-0 renal and in the assay on NCI-H23 lung was above 100 µM in each case.

On to `O=C1NC(=O)[C@@H](OCC2CCCCC2)[C@@H]2OCC3OC(C(O)C3O)C12` (some centres not stated), for which the TGI in the assay on CAKI-1 renal, in the assay with MDA-N, in the assay on SK-MEL-2 melanoma, in the assay with SK-OV-3 ovarian, with COLO 205 colon and in the assay with NCI-H226 lung was above 100 µM in each case. For the same molecule, the TGI with MCF7 breast, in the assay on A498 renal, in the assay on HT29 colon, in the assay on OVCAR-8 ovarian, in the assay with NCI-H460 lung and with RXF 393 renal was above 100 µM each time. For the same molecule, the TGI with HCT-116 colon, with SF-268 CNS, in the assay with OVCAR-5 ovarian, in the assay with 786-0 renal and in the assay with NCI-H23 lung was above 100 µM each time.

In the case of `CC(C)(C)OC(=O)NNC(=O)C1Cc2ccccc2OC1=O` (configuration not stated), the TGI in the assay on CAKI-1 renal, in the assay with RPMI-8226 leukemia, in the assay on MDA-N, in the assay with UO-31 renal, in the assay with SK-MEL-2 melanoma and with SK-OV-3 ovarian was above 100 µM each time. The TGI in the assay on NCI-H226 lung, in the assay on BT-549 breast, with HT29 colon, with OVCAR-8 ovarian, with NCI-H460 lung and in the assay on RXF 393 renal was above 100 µM in each case. For the same molecule, the TGI in the assay with HCT-116 colon, with SF-268 CNS, with OVCAR-5 ovarian, with 786-0 renal and in the assay with NCI-H23 lung was above 100 µM each time.

Regarding `CCCCCCCC/C=C\CCCCCCCC(=O)OC[C@]1(CO)CCC(=O)O1`, the TGI in the assay with CAKI-1 renal, in the assay with UO-31 renal, in the assay on SK-MEL-2 melanoma, in the assay on SK-OV-3 ovarian, in the assay on COLO 205 colon and with NCI-H226 lung was above 100 µM in each case. For the same molecule, the TGI in the assay with BT-549 breast, in the assay on MCF7 breast, in the assay with A498 renal, in the assay on HT29 colon, in the assay on OVCAR-8 ovarian and in the assay with NCI-H460 lung was above 100 µM throughout. Moreover, the TGI in the assay on RXF 393 renal, in the assay on HCT-116 colon, in the assay on SF-268 CNS, with OVCAR-5 ovarian, with 786-0 renal and with NCI-H23 lung was above 100 µM in each case.

As to `CN(C)Cc1cc(C(=O)/C=C/c2ccc(Br)cc2)cc(CN(C)C)c1O`, the TGI in the assay with CAKI-1 renal was 6.34 µM; in the assay with RPMI-8226 leukemia, 26.8 µM; in the assay with MDA-N it was 9.81 µM; with UO-31 renal, 9.04 µM; in the assay on COLO 205 colon, 3.28 µM; in the assay with NCI-H226 lung, 35.9 µM. Besides, the TGI turned out to be 30.4 µM in the assay on A498 renal; 12.5 µM in the assay with HT29 colon; 20.8 µM in the assay with OVCAR-8 ovarian; 21.9 µM in the assay on NCI-H460 lung; 17.1 µM in the assay on RXF 393 renal; 19.9 µM with HCT-116 colon. In addition, the TGI in the assay with SF-268 CNS was 50.3 µM; with OVCAR-5 ovarian, 34 µM; with 786-0 renal, 19 µM; in the assay on NCI-H23 lung, 33 µM.
